The supplement of paper PMC11451515

What was measured:
Assay in all cases: AUC of viability dose-response curve (% viability x log10 dose units); higher = less sensitive
Conditions in all cases: 48 h
P12-Ichikawa = test system: P12-Ichikawa
Outline: (§1)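 Medium-adapted leukemia cells in 1536-well plates, at 500 or 1000 cells/well, were incubated for 48 h at 37°C with library compounds in DMSO at 11 threefold doses from 47 μM to 0.79 nM. CellTiter-Glo One luminescence normalised per plate to DMSO and cell-free wells was fitted with a four-parameter log-logistic model over log10 doses. Area under the curve was integrated from this fit by trapezoidal rule, with curves beyond full viability scaled and failed quality-control curves removed.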

SEM cells = test system: SEM cells
Outline: as §1

NOMO1 = test system: NOMO1
Outline: as §1

[1] = RPMI 5 mM glucose + 10% dialyzed FBS

SMILES	AUC of viability dose-response curve (P12-Ichikawa; HPLM + 10% dialyzed FBS)	AUC of viability dose-response curve (P12-Ichikawa; RPMI 5 mM glucose + 10% FBS)	AUC of viability dose-response curve (P12-Ichikawa; [1])	AUC of viability dose-response curve (SEM cells; HPLM + 10% dialyzed FBS)	AUC of viability dose-response curve (SEM cells; RPMI 5 mM glucose + 10% FBS)	AUC of viability dose-response curve (SEM cells; [1])	AUC of viability dose-response curve (NOMO1; HPLM + 10% dialyzed FBS)	AUC of viability dose-response curve (NOMO1; RPMI 5 mM glucose + 10% FBS)	AUC of viability dose-response curve (NOMO1; [1])
CC[C@H]1OC(=O)[C@H](C)[C@@H](O[C@H]2C[C@@](C)(OC)[C@@H](O)[C@H](C)O2)[C@H](C)[C@@H](O[C@@H]2O[C@H](C)C[C@H](N(C)C)[C@H]2O)[C@](C)(O)C[C@@H](C)/C(=N\OCOCCOC)[C@H](C)[C@@H](O)[C@]1(C)O	423	390	407	423	444	465	409	424	374
COc1ccc(/C=C/C(=O)Nc2ccccc2C(=O)O)cc1OC	453	458	450	446	438	448	434	455	463
OC1CCC(CC1)N2\C=N/C3=C(C2=N)C(=C([N]3CC4=CC=CC=C4)C5=CC=CC=C5)C6=CC=CC=C6 (centres undefined)	437	395	408	329	323	353	399	402	403
O=C(O)c1cccnc1	408	426	403	330	360	356	369	402	385
CC[C@H](CO)Nc1nc(NCc2ccccc2)c2ncn(C(C)C)c2n1	432	428	428	438	467	440	432	405	427
COc1cccc(OC)c1-c1cc(C(=O)NC2(C(=O)O)C3CC4CC(C3)CC2C4)nn1-c1ccnc2cc(Cl)ccc12 (centres undefined)	456	472	454	467	467	461	447	473	455
OC[C@H]1OC(O)C[C@@H](O)[C@@H]1O (some centres undefined)	463	470	475	439	441	447	463	466	466
CCc1nc(N)nc(N)c1-c1ccc(Cl)cc1	352	427	389	381	392	399	381	421	427
Cc1cc(/C=c2/sc3nc4ccccc4n3c2=O)c(C)n1-c1ccccc1	471	476	467	473	466	473	472	455	472
CN1CCN(CC1)C2=CC3=C([NH]C(=N3)C/4=C(\N)C5=C(F)C=CC=C5NC4=O)C=C2	420	395	399	161	178	152	418	440	433
CCCCCN(C)CCC(O)(P(=O)([O-])O)P(=O)(O)O	447	426	409	357	384	367	421	439	423
O=C1\C=C(OC2=C(C=CC=C12)C3=CC=CC4=C3SC5=C4C=CC=C5)\N6CCOCC6	471	456	469	446	425	432	474	464	467
OC1=C(Cl)C=C(N\C2=C(\C(=O)NC2=O)C3=C(C=CC=C3)[N+]([O-])=O)C=C1	457	456	459	419	426	434	400	431	427
c1coc(CNc2ncnc3nc[nH]c23)c1	437	464	467	460	469	473	455	461	445
CC1(C)CCC(C)(C)c2cc(NC(=O)c3ccc(C(=O)O)cc3)ccc21	463	470	469	464	465	451	455	445	435
CC1=CC/2=C(C=C1C)N(C[C@@H](O)[C@@H](O)[C@@H](O)CO)C/3=N/C(=O)NC(=O)C3=N2	458	449	451	474	428	474	462	472	460
C[C@@H]1CC[C@@]2(CC[C@]3(C)\C(=C/C[C@@H]4[C@@]5(C)C[C@@H](O)[C@H](O)[C@@](C)(CO)[C@@H]5CC[C@@]34C)[C@@H]2[C@H]1C)C(O)=O	468	472	460	385	455	295	446	445	468
C#CCC(Cc1cnc2nc(N)nc(N)c2n1)c1ccc(C(=O)N[C@@H](CCC(=O)O)C(=O)O)cc1 (some centres undefined)	227	250	228	274	358	232	307	380	265
Clc1ccc(CCC(Cn2ccnc2)Sc2c(Cl)cccc2Cl)cc1 (centres undefined)	450	444	404	366	422	408	449	402	432
CCN(CC)CCCC(C)Nc1ccnc2cc(Cl)ccc12 (centres undefined)	416	416	418	477	468	468	382	416	416
Cc1nnc(C(=O)NC(C)(C)c2nc(C(=O)NCc3ccc(F)cc3)c(O)c(=O)n2C)o1	448	454	465	473	449	465	428	449	470
CCOc1cc(C(=O)Nc2ccc(Cl)c(-c3nc4ccccc4[nH]3)c2)cc(OCC)c1OCC	431	418	387	378	392	371	475	410	431
CN1CCC(CNc2ccc3ncc(-c4cccc(OC(F)(F)F)c4)n3n2)CC1	449	435	420	329	334	340	429	399	425
Cc1ccc(C(=O)Nc2ccc([S+](=O)([O-])O)c3cc([S+](=O)([O-])O)cc([S+](=O)([O-])O)c23)cc1NC(=O)c1cccc(NC(=O)Nc2cccc(C(=O)Nc3cc(C(=O)Nc4ccc([S+](=O)([O-])O)c5cc([S+](=O)([O-])O)cc([S+](=O)([O-])O)c45)ccc3C)c2)c1	390	392	381	414	393	373	350	406	396
CN(C)CCc1c[nH]c2ccc(Cn3cncn3)cc12	329	312	286	267	226	257	318	277	311
CC(O)(C[S+](=O)([O-])c1ccc(F)cc1)C(=O)Nc1ccc(C#N)c(C(F)(F)F)c1 (centres undefined)	450	430	413	428	426	424	439	422	436
